Test results from patent US12497365B2, “4-pyridinyl formamide compound or derivative thereof, preparation method therefor, herbicidal composition and use thereof” (Qingdao Kingagroot Chemical Compound Co., Ltd., priority 2019, dated 2025).

How the values were obtained:
Experiment in all cases: Weeding effect in post-emergence stage
Type in all cases: in vivo
Conditions in all cases: active ingredient 2000 g/ha, 3 weeks after application, fresh weight control rate
Chenopodium album = tested on: Chenopodium album
Procedure, shortened: (§1)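 Greenhouse post-emergence test: 2-3 leaf plants sprayed at 125-2000 g/ha, then fresh weight control rate scored at 3 weeks.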

Abutilon theophrasti = tested on: Abutilon theophrasti
Procedure, shortened: as §1

[1] = tested on: Amaranthus retroflexus L.
Procedure, shortened: as §1

Descurainia sophia = tested on: Descurainia sophia
Procedure, shortened: as §1

Row | Structure (SMILES) | Weeding effect, activity level (growth control rate), Chenopodium album (Chenopodium album) | Weeding effect, activity level (growth control rate), Abutilon theophrasti (Abutilon theophrasti) | Weeding effect, activity level (growth control rate), Amaranthus retroflexus L. [1] | Weeding effect, activity level (growth control rate), Descurainia sophia (Descurainia sophia)
1 | Cn1nnnc1NC(=O)c1ccnc(-c2cccnc2C(F)(F)F)c1Cl [Compound 1-141] | 5 (Level 5: growth control rate is above 85%) | 5 (Level 5: growth control rate is above 85%) | 5 (Level 5: growth control rate is above 85%) | 5 (Level 5: growth control rate is above 85%)
2 | Cn1nnnc1NC(=O)c1ccnc(-c2ccc(F)cc2)c1C1CC1 [Compound 1-221] | 5 (Level 5: growth control rate is above 85%) | 5 (Level 5: growth control rate is above 85%) | 5 (Level 5: growth control rate is above 85%) | 5 (Level 5: growth control rate is above 85%)
3 | Cn1nnnc1NC(=O)c1ccnc(-c2cc(F)cc(F)c2)c1Cl [Compound 1-65] | 5 (Level 5: growth control rate is above 85%) | 5 (Level 5: growth control rate is above 85%) | 5 (Level 5: growth control rate is above 85%) | 5 (Level 5: growth control rate is above 85%)
4 | Cn1nnnc1NC(=O)c1ccnc(-c2ccc(F)cc2)c1[S+](C)[O-] (stereo not shown) [Compound 1-205] | 5 (Level 5: growth control rate is above 85%) | 5 (Level 5: growth control rate is above 85%) | 5 (Level 5: growth control rate is above 85%) | 5 (Level 5: growth control rate is above 85%)
5 | Cn1nnnc1NC(=O)c1ccnc(-c2cnc(C#N)nc2)c1Cl [Compound 1-159] | 5 (Level 5: growth control rate is above 85%) | 5 (Level 5: growth control rate is above 85%) | 5 (Level 5: growth control rate is above 85%) | 5 (Level 5: growth control rate is above 85%)
6 | CC[S+]([O-])c1c(C(=O)Nc2nnnn2C)ccnc1-c1ccc(F)cc1 (stereo not shown) [Compound 1-206] | 5 (Level 5: growth control rate is above 85%) | 5 (Level 5: growth control rate is above 85%) | 5 (Level 5: growth control rate is above 85%) | 5 (Level 5: growth control rate is above 85%)
7 | Cc1ccc(F)c(-c2nccc(C(=O)Nc3nnnn3C)c2Cl)c1 [Compound 1-67] | 5 (Level 5: growth control rate is above 85%) | 5 (Level 5: growth control rate is above 85%) | 5 (Level 5: growth control rate is above 85%) | 5 (Level 5: growth control rate is above 85%)
8 | Cn1nnnc1NC(=O)c1ccnc(-c2cccc(OCc3ccccc3)c2)c1Cl [Compound 1-56] | 5 (Level 5: growth control rate is above 85%) | 5 (Level 5: growth control rate is above 85%) | 5 (Level 5: growth control rate is above 85%) | 5 (Level 5: growth control rate is above 85%)
9 | Cn1nnnc1NC(=O)c1ccnc(-c2ccc(F)nn2)c1Cl [Compound 1-154] | 5 (Level 5: growth control rate is above 85%) | 5 (Level 5: growth control rate is above 85%) | 5 (Level 5: growth control rate is above 85%) | 5 (Level 5: growth control rate is above 85%)
10 | Cn1nnnc1NC(=O)c1ccnc(-c2cccc(Cl)c2F)c1Cl [Compound 1-93] | 5 (Level 5: growth control rate is above 85%) | 5 (Level 5: growth control rate is above 85%) | 5 (Level 5: growth control rate is above 85%) | 5 (Level 5: growth control rate is above 85%)
11 | Cc1cccc(-c2nccc(C(=O)Nc3nnnn3C)c2Cl)c1 [Compound 1-10] | 5 (Level 5: growth control rate is above 85%) | 5 (Level 5: growth control rate is above 85%) | 5 (Level 5: growth control rate is above 85%) | 5 (Level 5: growth control rate is above 85%)
12 | CC(=O)c1ccc(-c2nccc(C(=O)Nc3nnnn3C)c2Cl)s1 [Compound 1-191] | 5 (Level 5: growth control rate is above 85%) | 5 (Level 5: growth control rate is above 85%) | 5 (Level 5: growth control rate is above 85%) | 5 (Level 5: growth control rate is above 85%)
13 | CN(C)c1c(C(=O)Nc2nnnn2C)ccnc1-c1ccc(F)cc1 [Compound 1-208] | 5 (Level 5: growth control rate is above 85%) | 5 (Level 5: growth control rate is above 85%) | 5 (Level 5: growth control rate is above 85%) | 5 (Level 5: growth control rate is above 85%)
14 | Cn1nnnc1NC(=O)c1ccnc(-c2cc(C(=O)O)cc([N+](=O)[O-])c2)c1Cl [Compound 1-100] | 5 (Level 5: growth control rate is above 85%) | 5 (Level 5: growth control rate is above 85%) | 5 (Level 5: growth control rate is above 85%) | 5 (Level 5: growth control rate is above 85%)
15 | Cc1nccc(C(=O)Nc2nnnn2C)c1Cl [Compound 1-1] | 5 (Level 5: growth control rate is above 85%) | 5 (Level 5: growth control rate is above 85%) | 5 (Level 5: growth control rate is above 85%) | 5 (Level 5: growth control rate is above 85%)
16 | Cc1ccc(-c2nccc(C(=O)Nc3nnnn3C)c2Cl)c(F)c1 [Compound 1-69] | 5 (Level 5: growth control rate is above 85%) | 5 (Level 5: growth control rate is above 85%) | 5 (Level 5: growth control rate is above 85%) | 5 (Level 5: growth control rate is above 85%)
17 | Cc1cc(C)cc(-c2nccc(C(=O)Nc3nnnn3C)c2Cl)c1 [Compound 1-60] | 5 (Level 5: growth control rate is above 85%) | 5 (Level 5: growth control rate is above 85%) | 5 (Level 5: growth control rate is above 85%) | 5 (Level 5: growth control rate is above 85%)
18 | Cn1nnnc1NC(=O)c1ccnc(-c2cc(C#N)ccc2F)c1Cl [Compound 1-82] | 5 (Level 5: growth control rate is above 85%) | 5 (Level 5: growth control rate is above 85%) | 5 (Level 5: growth control rate is above 85%) | 5 (Level 5: growth control rate is above 85%)
19 | Cn1nnnc1NC(=O)c1ccnc(C2CC2)c1Cl [Compound 1-3] | 5 (Level 5: growth control rate is above 85%) | 5 (Level 5: growth control rate is above 85%) | 5 (Level 5: growth control rate is above 85%) | 5 (Level 5: growth control rate is above 85%)
20 | COC(=O)c1cc(-c2nccc(C(=O)Nc3nnnn3C)c2Cl)ccc1Cl [Compound 1-98] | 5 (Level 5: growth control rate is above 85%) | 5 (Level 5: growth control rate is above 85%) | 5 (Level 5: growth control rate is above 85%) | 5 (Level 5: growth control rate is above 85%)
21 | Cn1nnnc1NC(=O)c1ccnc(Oc2ccccc2)c1Cl [Compound 1-2063] | 5 (Level 5: growth control rate is above 85%) | 5 (Level 5: growth control rate is above 85%) | 5 (Level 5: growth control rate is above 85%) | 5 (Level 5: growth control rate is above 85%)
22 | Cn1nnnc1NC(=O)c1ccnc(-c2cccc(Br)c2F)c1Cl [Compound 1-97] | 5 (Level 5: growth control rate is above 85%) | 5 (Level 5: growth control rate is above 85%) | 5 (Level 5: growth control rate is above 85%) | 5 (Level 5: growth control rate is above 85%)
